Reference: publication PMC9757072, “NrnA is a 5′-3′ exonuclease that processes short RNA substrates in vivo and in vitro” (Nucleic Acids Research, 2022)

What was measured:
NrnABs = target: T1, NrnABs (Bacillus subtilis, UniProt O34600, D156N/D80N); experiment: DRaCALA
T1 construct: gene nrnA

OrnEc = target: T2, OrnEc (Escherichia coli, UniProt P0A784); experiment: cleavage of […]'-32P RNA mixture, denaturing PAGE; assay type: biochemical; conditions: 20 nM enzyme; GG is the 2-mer of the 2-7 and 10-mer mix; pH 8.0, 100 mM NaCl, Mg or Mn; labelled compound
T2 sequence (P0A784 1-181): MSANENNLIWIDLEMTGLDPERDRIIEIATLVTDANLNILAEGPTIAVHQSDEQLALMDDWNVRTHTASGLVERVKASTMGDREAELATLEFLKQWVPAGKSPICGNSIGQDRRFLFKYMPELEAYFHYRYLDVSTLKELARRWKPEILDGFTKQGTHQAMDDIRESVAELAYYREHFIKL

CnpBMt = CnpBMt (Mycobacterium tuberculosis, UniProt P71615); experiment: cleavage of […]-c-di-AMP, denaturing PAGE; assay type: biochemical; conditions: 100 nM enzyme, 1 uM substrate; pH 8.0, 300 mM NaCl, 200 uM MnCl2, room temperature; labelled compound
GdpP(82–659)Bs = target: T3, GdpP(82–659)Bs (Bacillus subtilis, UniProt P37484); experiment: cleavage of […]-c-di-AMP, denaturing PAGE; assay type: biochemical; conditions: 100 nM enzyme, 1 uM substrate; pH 8.0, 300 mM NaCl, 200 uM MnCl2, room temperature; labelled compound; positive control
T3 construct: cytoplasmic portion, residues 82-659; N-terminal 6xHis tag kept; expressed in E. coli
T3 sequence (P37484 82-659): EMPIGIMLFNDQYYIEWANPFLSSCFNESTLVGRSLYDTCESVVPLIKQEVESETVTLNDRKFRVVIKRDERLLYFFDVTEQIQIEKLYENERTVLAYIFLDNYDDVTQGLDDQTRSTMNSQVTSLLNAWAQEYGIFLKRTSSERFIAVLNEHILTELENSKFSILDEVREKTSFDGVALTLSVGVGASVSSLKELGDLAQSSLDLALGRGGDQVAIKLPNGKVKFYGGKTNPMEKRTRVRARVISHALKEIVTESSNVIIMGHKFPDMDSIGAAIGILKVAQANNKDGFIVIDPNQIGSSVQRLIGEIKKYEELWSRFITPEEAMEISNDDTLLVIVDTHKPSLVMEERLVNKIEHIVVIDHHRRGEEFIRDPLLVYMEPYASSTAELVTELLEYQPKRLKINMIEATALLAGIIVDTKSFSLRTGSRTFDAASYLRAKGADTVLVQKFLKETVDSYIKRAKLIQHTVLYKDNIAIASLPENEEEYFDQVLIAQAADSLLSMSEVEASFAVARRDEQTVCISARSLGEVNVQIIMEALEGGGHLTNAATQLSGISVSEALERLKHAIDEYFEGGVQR

CnpBMs = target: T4, CnpBMs (Mycolicibacterium smegmatis, UniProt A0QVM9); experiment: cleavage of […]-c-di-AMP, denaturing PAGE; assay type: biochemical; conditions: 100 nM enzyme, 1 uM substrate; pH 8.0, 300 mM NaCl, 200 uM MnCl2, room temperature; labelled compound
T4 construct: gene MSMEG_2630

[1] = substrate: Nc1ncnc2c1ncn2[C@@H]1O[C@H](COP(=O)(O)O[C@H]2[C@@H](O)[C@H](n3cnc4c(N)ncnc43)O[C@@H]2COP(=O)(O)O)[C@@H](O)[C@H]1O; experiment: continuous PPDK/luciferase coupled assay of AMP release; assay type: biochemical, Bacillus subtilis; conditions: 10 mM MgCl2, 0.5 mM MnCl2, pH 8.0, 25 C, value assigned to AA by printed order (AA or ACC), 5'-phosphate inferred from 2 AMP per AA
[2] = substrate: Nc1ccn([C@@H]2O[C@H](COP(=O)(O)O[C@H]3[C@@H](O)[C@H](n4ccc(N)nc4=O)O[C@@H]3COP(=O)(O)O[C@H]3[C@@H](O)[C@H](n4cnc5c(N)ncnc54)O[C@@H]3COP(=O)(O)O)[C@@H](O)[C@H]2O)c(=O)n1; experiment: as above; assay type: biochemical, Bacillus subtilis; conditions: 10 mM MgCl2, 0.5 mM MnCl2, pH 8.0, 25 C, value assigned to ACC by printed order (AA or ACC), 5'-phosphate inferred from AMP release

T1 sequence (O34600 whole entry D80N/D156N): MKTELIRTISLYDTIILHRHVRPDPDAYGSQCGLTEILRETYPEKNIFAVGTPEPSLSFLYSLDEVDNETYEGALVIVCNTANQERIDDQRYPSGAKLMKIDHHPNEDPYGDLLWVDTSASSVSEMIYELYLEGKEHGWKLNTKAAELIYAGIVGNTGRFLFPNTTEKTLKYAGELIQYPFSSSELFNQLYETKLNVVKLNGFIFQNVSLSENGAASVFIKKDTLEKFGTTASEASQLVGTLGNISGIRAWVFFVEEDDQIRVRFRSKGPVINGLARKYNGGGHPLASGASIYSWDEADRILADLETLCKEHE
Chain of CnpBMt (P71615 whole entry): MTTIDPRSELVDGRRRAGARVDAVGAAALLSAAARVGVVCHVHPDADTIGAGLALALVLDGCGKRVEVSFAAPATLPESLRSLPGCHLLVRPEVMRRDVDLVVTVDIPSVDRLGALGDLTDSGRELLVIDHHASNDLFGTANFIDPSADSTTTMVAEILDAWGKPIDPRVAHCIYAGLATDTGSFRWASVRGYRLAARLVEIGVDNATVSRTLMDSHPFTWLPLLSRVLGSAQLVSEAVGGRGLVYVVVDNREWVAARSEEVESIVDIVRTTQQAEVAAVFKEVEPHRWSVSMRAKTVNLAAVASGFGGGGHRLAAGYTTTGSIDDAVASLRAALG
T4 sequence (A0QVM9 1-340): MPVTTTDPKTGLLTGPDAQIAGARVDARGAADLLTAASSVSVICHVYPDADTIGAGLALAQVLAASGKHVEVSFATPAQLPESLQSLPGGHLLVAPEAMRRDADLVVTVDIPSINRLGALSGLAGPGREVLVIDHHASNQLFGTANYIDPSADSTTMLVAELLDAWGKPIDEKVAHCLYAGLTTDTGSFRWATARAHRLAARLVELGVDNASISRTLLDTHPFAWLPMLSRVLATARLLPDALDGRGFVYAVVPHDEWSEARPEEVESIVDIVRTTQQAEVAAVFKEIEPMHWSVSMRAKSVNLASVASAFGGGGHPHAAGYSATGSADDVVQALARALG

Nc1ncnc2c1ncn2[C@@H]1O[C@H](COP(=O)(O)O[C@H]2[C@@H](O)[C@H](n3cnc4c(N)ncnc43)O[C@@H]2COP(=O)(O)O)[C@@H](O)[C@H]1O [AA]
Kd (NrnABs): 450 ± 30 nM

Nc1ccn([C@@H]2O[C@H](COP(=O)(O)O)[C@@H](OP(=O)(O)OC[C@H]3O[C@@H](n4cnc5c(N)ncnc54)[C@H](O)[C@@H]3O)[C@H]2O)c(=O)n1 [CA]
Kd (NrnABs): 2270 ± 130 nM

Nc1nc2c(ncn2[C@@H]2O[C@H](COP(=O)(O)O)[C@@H](OP(=O)(O)OC[C@H]3O[C@@H](n4cnc5c(N)ncnc54)[C@H](O)[C@@H]3O)[C@H]2O)c(=O)[nH]1 [GA]
Kd (NrnABs): 360 ± 130 nM

Nc1nc2c(ncn2[C@@H]2O[C@H](COP(=O)(O)O[C@H]3[C@@H](O)[C@H](n4cnc5c(=O)[nH]c(N)nc54)O[C@@H]3COP(=O)(O)O)[C@@H](O)[C@H]2O)c(=O)[nH]1 [GG]
cleavage of 5'-32P RNA mixture, denaturing PAGE (OrnEc): dinucleotides are rapidly processed, and only minimal trinucleotide processing was seen | Kd (NrnABs): 210 nM

Nc1ncnc2c1ncn2[C@@H]1O[C@H](COP(=O)(O)O[C@H]2[C@@H](O)[C@H](n3ccc(=O)[nH]c3=O)O[C@@H]2COP(=O)(O)O)[C@@H](O)[C@H]1O [UA]
Kd (NrnABs): 1290 ± 180 nM

Nc1ncnc2c1ncn2[C@@H]1O[C@@H]2COP(=O)(O)O[C@H]3[C@@H](O)[C@H](n4cnc5c(N)ncnc54)O[C@@H]3COP(=O)(O)O[C@H]2[C@H]1O [c-di-AMP]
cleavage of 32P-c-di-AMP, denaturing PAGE (CnpBMt): only CnpB demonstrated an ability to directly hydrolyze c-di-AMP to AMP | cleavage of 32P-c-di-AMP, denaturing PAGE (GdpP(82–659)Bs): cytoplasmic portion of B. subtilis GdpP, which is known to hydrolyze c-di-AMP | cleavage of 32P-c-di-AMP, denaturing PAGE (CnpBMs): All CnpB-like proteins exhibited robust hydrolysis of c-di-AMP

B1: NrnABs (Bacillus subtilis subsp. subtilis str. 168) (protein)
chain: MKTELIRTISLYDTIILHRHVRPDPDAYGSQCGLTEILRETYPEKNIFAVGTPEPSLSFLYSLDEVDNETYEGALVIVCDTANQERIDDQRYPSGAKLMKIDHHPNEDPYGDLLWVDTSASSVSEMIYELYLEGKEHGWKLNTKAAELIYAGIVGDTGRFLFPNTTEKTLKYAGELIQYPFSSSELFNQLYETKLNVVKLNGFIFQNVSLSENGAASVFIKKDTLEKFGTTASEASQLVGTLGNISGIRAWVFFVEEDDQIRVRFRSKGPVINGLARKYNGGGHPLASGASIYSWDEADRILADLETLCKEHE
notes: full length; N-terminal 10xHis-SUMO tag cleaved by bdSENP1; expressed in E. coli T7 Express
Km [1]: 90 µM | Km [2]: 325 µM
